Data on 3 compounds can be found in US11696920B2, “Intelligent delivery of ingested and absorbed molecules” (IMMD SP. ZO.O, priority 2016, dated 2023).

The nature of series [1]: Serum EPA pharmacokinetics after 4 weeks of supplementation with DHA formulations. The following applies: human, in vivo.
For series [2], the system named is LDL. Kind of series: LDL-Px blood marker, DHA and carotenoid-SFA formulations, trial for 4 weeks. In kind it is in vivo, human. From the text:
(§1) Since DHA itself has antioxidant and anti-inflammatory properties it was important to assess whether its formulation with carotenoids and SFA would change them. Comparison of the effects of DHA and its new formulations on blood markers of oxidative and inflammatory damage is presented in Table 7.
It is worth pointing out that the real synergetic effect may be even more profound, because in both of those carotenoid-SFA formulations only half of the dose of the control DHA was used.

Series [3] in a line: Serum DHA pharmacokinetics after 4 weeks of supplementation with DHA formulations. The following applies: human, in vivo.
For series [4], the system named is liver lipid metabolism. Kind of series: Serum LDL cholesterol, DHA and carotenoid-SFA formulations, trial for 4 weeks. In kind it is in vivo, human.
Series [5] concerns blood markers of oxidative and inflammatory damage. Kind of series: IOD blood marker, DHA and carotenoid-SFA formulations, trial for 4 weeks. In kind it is in vivo, human.
From the text: as §1

Series [6] concerns liver lipid metabolism. Kind of series: Serum triglycerides, DHA and carotenoid-SFA formulations, trial for 4 weeks. In kind it is in vivo, human.
For series [7] the following is noted: publicly available trans-resveratrol formulations; cited from earlier work.

Take `CC/C=C\C/C=C\C/C=C\C/C=C\C/C=C\C/C=C\CCC(=O)O` [DHA 500 mg, docosahexaenoic acid]: the “Combined increase in serum EPA” value in series [1] was found to be 11.6 µg/mL. The “Serum EPA” value in series [1] (0 weeks) was 56.5 ± 6.2 µg/mL. In series [1] (2 weeks), the “Increase in serum EPA” value is on record as 21%, the “Serum EPA” value is 68.1 ± 7.4 µg/mL and the “Δ serum EPA vs 0 w” value is given as “Δ = +11.6 μg/ml”. Further, the “Serum EPA” value in series [1] (4 weeks) worked out at 35.8 ± 5.3 µg/mL. Also, the LDL-Px in series [2] (0 w) came to 700 ± 76 ELISA × 10^3. Moreover, in series [2] (4 w), the LDL-Px turned out to be 265 ± 27 ELISA × 10^3; the “LDL-Px, % of baseline” value amounted to 38%; the “Δ LDL-Px vs 0 w” value is on record as “Δ = −435 ELISA × 10^3”. For the same compound, in series [3], the concentration at 0 weeks stood at 106 ± 11 µg/mL, the concentration at 2 weeks was 134 ± 12 µg/mL and the concentration at 4 weeks was 108 ± 12 µg/mL. Also, in series [3] (2 weeks), the “Increase in serum DHA” value was determined as 26% and the “Δ serum DHA vs 0 w” value is reported as “Δ = +28 μg/ml”. Besides, in series [3] (4 weeks), the “Δ serum DHA vs 0 w” value is given as “Δ = +2 μg/ml”. The same compound registered an LDL cholesterol in series [4] (0 w) of 154 ± 16 mg/dL. Moreover, in series [4] (4 w), the LDL cholesterol is 149 ± 15 mg/dL and the “Δ LDL cholesterol vs 0 w” value is on record as “Δ = −5 mg/dL”. Further, the “IOD in MDA” value in series [5] (0 w) worked out at 165 ± 18 µM. Further, in series [5] (4 w), the “IOD in MDA” value was found to be 107 ± 11 µM; the “IOD, % of baseline” value turned out to be 65%; the “Δ IOD vs 0 w” value is reported as “Δ = −58 μM”. In addition, in series [6] (0 w), the Triglycerides is reported as 197 ± 18 mg/dL. Besides, in series [6] (4 w), the Triglycerides was found to be 184 ± 17 mg/dL; the “Triglycerides, % of baseline” value is 93%; the “Δ Triglycerides vs 0 w” value is on record as “Δ = −13 mg/dL”. Further, the “Reduction of serum triglycerides” value in series [6] (4 weeks) is on record as 13 mg/dL.
As to `CC(C)=CCC/C(C)=C/C=C/C(C)=C/C=C/C(C)=C/C=C/C=C(C)/C=C/C=C(C)/C=C/C=C(\C)CCC=C(C)C` [Lycopene 7 mg, Lycopene], the LDL-Px in series [2] (0 w) amounted to 133 ± 19 ELISA × 10^3. In series [2] (4 w), the LDL-Px was 115 ± 14 ELISA × 10^3; the “LDL-Px, % of baseline” value is 86%; the “Δ LDL-Px vs 0 w” value is listed as “Δ = −18 ELISA × 10^3”. For the same compound, the LDL cholesterol in series [4] (0 w) turned out to be 158 ± 17 mg/dL. Besides, in series [4] (4 w), the LDL cholesterol is 154 ± 16 mg/dL and the “Δ LDL cholesterol vs 0 w” value was “Δ = −4 mg/dL”. The “Effect on serum LDL level” value in series [4] (4 weeks) is recorded as “did not affect level of LDL”. In addition, the “IOD in MDA” value in series [5] (0 w) turned out to be 111 ± 12 µM. Besides, in series [5] (4 w), the “IOD in MDA” value was 79 ± 9 µM; the “IOD, % of baseline” value was found to be 71%; the “Δ IOD vs 0 w” value is “Δ = −32 μM”. For the same compound, the Triglycerides in series [6] (0 w) stood at 155 ± 12 mg/dL. In series [6] (4 w), the Triglycerides is 150 ± 13 mg/dL; the “Triglycerides, % of baseline” value worked out at 97%; the “Δ Triglycerides vs 0 w” value is on record as “Δ = −5 mg/dL”. The “Change in triglyceride concentrations” value in series [6] (end of the 4-week trial) was “no significant change”.
`Oc1ccc(/C=C/c2cc(O)cc(O)c2)cc1` [trans-resveratrol]: in series [7], the “Fraction bioavailable after oral consumption” value is listed as 5%.
